“Also recorded” adds a separate entry of the source.
Tests used:
C57Bl/6 mice [1] = test: Phase shifting of circadian activity by drug (running wheel); assay type: in vivo
Description: (§1) Animals were housed under a reversed 12:12 LD cycle (400 lux from white LED lamps) with food and water ad libitum. For phase-shifting studies, C57Bl/6 mice were maintained on running wheels in light tight chambers on a 12:12 LD cycle (400 lux from white LED lamps) and injected with drug at the indicated time points. The drugs were formulated in a vehicle consisting of 5% Koliphor-HS15 (Sigma-Aldrich, UK) 5% Cyclodextran (Sigma-Aldrich, UK) in 0.9% saline. This vehicle was warmed to 37° C. and the indicated drugs kept at a 100× stock in DMSO and mixed at the appropriate concentration to be administered at approximately 300 ul intraperitoneal injection (n=6 to 10). Where the time point of injection was in the dark, the procedure was conducted under dim red light. Where measuring phase-shifting, the mice were then placed in DD and allowed to free run for 14 days in DD, running wheel activity data was collected and analysed on Clocklab (Actimetrics, Wilmette, IL). For jet-lag studies, mice were maintained on running wheels in light tight chambers on a 12:12 LD cycle (400 lux from white LED lamps) and injected with drugs as above at ZT6 and the LD cycle was shifted 6 hours in advance. The onset of activity on each day was used to measure phase relative to the LD cycle.
Phase Shifting: C57Bl/6 male mice (80 days or older) were maintained on running wheels in light tight chambers on a 12:12 LD cycle (100 lux from white LED lamps) on stable entrainment, were released in complete darkness. At set times as indicated in the experiments, the animals received an intraperitoneal injection (300 ul) of drug constituted in sterile saline with 5% Cyclodextrin (Sigma-Aldrich) and 5% Koliphor (Sigma-Aldrich) and then allowed to free run in DD, running wheel activity data were collected and analysed on Clocklab (Actimetrics, Wilmette, IL).

C57Bl/6 mice [2] = test: Phase shifting of circadian activity in response to a light pulse with drug; assay type: in vivo; conditions: light at CT16
Description: Animals were maintained in a 12 h light (white) 12 h dark (grey) cycle and vehicle was administered just before a 30 min 400 lux light pulse (white bar) at time CT 22 (or 10 hours after lights off). All light cues were then removed to allow the animals free running clock to express. A gap in the lines on the day after the light pulse was administered indicates a phase shift.
Animals were maintained in a 12 h light (white) 12 h dark (grey) cycle and IB-MECA (1 mg/kg) was administered just before a 30 min 400 lux light pulse (white bar) at time CT 22 (or 10 hours after lights off).
Animals were housed under a reversed 12:12 LD cycle (400 lux from white LED lamps) with food and water ad libitum. For phase-shifting studies, C57Bl/6 mice were maintained on running wheels in light tight chambers on a 12:12 LD cycle (400 lux from white LED lamps) and injected with drug at the indicated time points. The drugs were formulated in a vehicle consisting of 5% Koliphor-HS15 (Sigma-Aldrich, UK) 5% Cyclodextran (Sigma-Aldrich, UK) in 0.9% saline. […] Where measuring phase-shifting, the mice were then placed in DD and allowed to free run for 14 days in DD, running wheel activity data was collected and analysed on Clocklab (Actimetrics, Wilmette, IL). […]

C57Bl/6 mice [3] = test: Re-entrainment in a jet-lag protocol; assay type: in vivo
Description: as §1, with “For jet-lag studies, mice were maintained on running wheels in light tight chambers on a 12:12 LD cycle (400 lux from white LED lamps) and injected with drugs as above at ZT6 and the LD cycle was shifted 6 hours in advance. The onset of activity on each day was used to measure phase relative to the LD cycle.” left out
Re-entrainment: C57B/6 male mice (80 days or older) were maintained on running wheels in light tight chambers on a 12:12 LD cycle (100 lux from white LED lamps) and injected with drugs as above at ZT6. […] Onset of activity on each day was used to measure phase relative to the LD cycle, data analysed on Clocklab.

Per2 = Per2 mRNA within the SCN after intraperitoneal injection; assay type: in vivo, mice; conditions: 4 h after intraperitoneal injection
Source text: SCN Tissue Collection: Animals were housed under a 12:12 LD cycle for 2 weeks with food and water ad libitum. Animals then received either a drug injection with a alteration in the light dark cycle as described in the experiment and at set points following drug administration were sacrificed by cervical dislocation. Sham-treated mice not given a light pulse were dissected at each time point. Brains were removed and placed into a brain matrix (Kent Scientific, Torrington CT, USA). Per2::Luc transgenic animals (as reported in Yoo et al, Proc Natl Acad Sci USA. 2004 Apr. 13; 101(15):5339-46) were obtained from Prof Joseph Takahashi, Northwestern University. […]
Total RNA was extracted using the microRNeasy column method (Qiagen, Hilden, Germany). Quality and quantity of RNA were measured using an Agilent Bioanalyzer and a Nanodrop1000 (Thermo Fisher Scientific, Waltham, MA USA), respectively.
RNA samples were prepared as described for microarray hybridisation. cDNA was synthesized with a qScript cDNA synthesis kit (Quanta Biosciences, Gaithersburg, MD), and quantitative PCR (qPCR) was conducted with Sybr green I and an SDS7700 thermal cycler (Applied Biosystems, Foster City, CA). Relative quantification of transcript levels was done as described previously (Peirson et al., Nucleic Acids Res. 2003 Jul. 15; 31(14):e73.). […]

SCN electrical activity = test: In vivo recording from SCN electrode implanted animals; conditions: intraperitoneal injection, 5 mg/kg
Per1/2 = test: Sleep deprivation, Per1/2 expression within the SCN; assay type: in vivo; conditions: sleep deprivation decreases Per1/2 expression

Nc1nc(-c2ccccc2)c2c(n1)-c1cc(OCCN3CCOCC3)ccc1C2=O [JNJ40255293, 2-amino-8-[2-(4-morpholinyl)ethoxy]-4-phenyl-5H-indeno[1,2-d]pyrimidin-5-one]
phase shift of circadian activity (C57Bl/6 mice [1]; 5 mg/kg intraperitoneal, 6 h after the onset of light (ZT6), then constant dark): induced a phase advance
phase shift of circadian activity (C57Bl/6 mice [1]; 5 mg/kg, administered at CT16, constant dark): resulted in a phase delay
phase shifts compared with other agents (FIG. 9A) (C57Bl/6 mice [1]; difference between onset pre and post injection): causes the largest phase shifts
phase-shifts in response to light (C57Bl/6 mice [2]): enhances phase-shifts in response to light at CT16
re-entrainment (advance of activity onset) (C57Bl/6 mice [3]; 5 mg/kg single intraperitoneal injection at ZT6, LD cycle advanced 6 h): shifted rapidly; also recorded: advanced entrainment more potently than Tasimelteon, KW6002 (specific A2A antagonist) or KW3902 (specific A1 antagonist)
re-entrainment, dose response (C57Bl/6 mice [3]; jet-lag protocol, LD cycle advanced 6 h): dose responsively enhanced re-entrainment
Per2 mRNA levels within the SCN (Per2): increase
phase of SCN electrical activity (SCN electrical activity): marked phase shift
Per1/2 expression within the SCN (Per1/2): reversed

Reference: US11931374B2, “Adenosine receptor modulators for the treatment of circadian rhythm disorders” (OXFORD UNIVERSITY INNOVATION LIMITED, priority 2016, dated 2024)
